These results are taken from patent publication US20150038545A1, “HYDROXYPHENYL PYRROLE COMPOUNDS CONTAINING AN HYDROXAMIC ACID AS HDAC INHIBITORS AND MEDICINAL APPLICATIONS THEREOF” (UNIVERSIDAD DEL PAÍS VASCO, priority 2011, published 2015).

One experiment deals with DLD-1. The experiment is described as follows: Cancer cell growth inhibition (CellTiter-Glo), DLD-1. Format: cell-based, Human. As to conditions: Homo sapiens; Colorectal Cancer, DLD-1, 72 h treatment. Here is the method:
(§1) Cell culture-based assays were used to evaluate the ability of compounds of the invention to inhibit cancer cell growth.
(§2) Cells were obtained from the American Type Culture Collection (ATCC). Cells were cultured at 37° C. with 5% CO2 in the appropriate growth medium (see table below), and harvested respectively during the logarithmic growth period and counted with hemocytometer. The cell viability was examined by trypan blue exclusion. Cell concentrations were adjusted to 5.56×10^4 cells/ml with respective medium.
(§3) Stock solutions of test compounds and positive drugs Doxorubicin (Zhejiang, Haizheng, China), Cisplatin (Nanjing Zhiyao, China) and Mitomycin (Zhejiang, Haizheng, China) were prepared in dimethyl sulphoxide (DMSO) or PBS at 20 mM.
(§4) In order to determine the IC50 for each compound, experiments were carried out in 96-well plates and the cell lines seeded at a density of 5,000 cells/well. […] All treatments were performed in triplicate. 10 μl of drug solution was added to each well and incubated for 72 hours. At the end of the incubation, 100 μl of the CellTiter-Glo Reagent were added to each well and the contents were mixed for 2 munites on an orbital shaker to induce cell lysis. The plate was incubated at room temperature for 10 minutes to stabilize luminiscent signal, and luminiscent was recorded. […] In order to calculate IC50 values, dose-responsive curves were fitted using nonlinear regression model with a sigmoidal dose response.

Another experiment has as its system SK-BR-3. The experiment is described as follows: Cancer cell growth inhibition (CellTiter-Glo), SK-BR-3. Format: cell-based, Human. As to conditions: Homo sapiens; Breast Cancer, SK-BR-3, 72 h treatment. The procedure:
as §1, §2, §3, §4

For a further experiment, the target named is T1, Human HDAC11 (Homo sapiens, UniProt Q96DB2).
T1 construct: GST (N); purchased BioMol SE-560
T1 sequence (Q96DB2 1-347): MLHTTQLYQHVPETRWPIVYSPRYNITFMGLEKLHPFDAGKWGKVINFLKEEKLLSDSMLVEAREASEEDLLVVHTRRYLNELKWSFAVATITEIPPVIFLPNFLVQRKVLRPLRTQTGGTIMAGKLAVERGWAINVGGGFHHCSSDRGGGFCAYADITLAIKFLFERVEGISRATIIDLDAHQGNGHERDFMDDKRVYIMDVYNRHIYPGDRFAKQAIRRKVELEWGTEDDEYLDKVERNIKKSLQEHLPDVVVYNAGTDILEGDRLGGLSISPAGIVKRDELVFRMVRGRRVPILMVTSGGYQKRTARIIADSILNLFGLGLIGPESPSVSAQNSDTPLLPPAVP
The experiment is described as follows: In vitro HDAC11 inhibition, fluorogenic peptide assay. Format: biochemical. As to conditions: for IC50: read-out: IC50 (nM) of enzyme activity HDAC11. The procedure: All HDAC assays were performed using acetylated AMC-labeled peptide substrate: • Substrate for isoforms HDAC1, 2, 3, 4, 5, 6, 7, 9, 10, 11 and HeLa nuclear extract assays: Acetylated fluorogenic peptide from p53 residues 379-382 (RHKKAc) (BioMol. Cat. # KI-104). • Substrate for HDAC8 assays: Acetylated fluorogenic peptide from p53 residues 379-382 (RHKAcKAc) (BioMol. Cat. # KI-178).
Enzymes: • HDAC1 assay: 75 nM Human HDAC1 (GenBank Accession No. NM_004964): Full length with C-terminal GST tag, MW=79.9 kDa, expressed by baculovirus expression system in Sf9 cells (BioMol. Cat. # SE-456). • HDAC2 assay: 5 nM Human HDAC2 (GenBank Accession No. Q92769): Full length with C-terminal His tag, MW=60 kDa, expressed by baculovirus expression system in Sf9 cells (BioMol. Cat. # SE-500). • HDAC3 assay: 2.3 nM Human HDAC3/NcoR2 (GenBank Accession No. NM_003883 for HDAC3, GenBank Accession No.NM_006312 for NcoR2): Complex of human HDAC3, full length with C-terminal His tag, MW=49.7 kDa, and human NCOR2, N-terminal GST tag, MW=39 kDa, co-expressed in baculovirus expression system (BioMol. Cat. # SE-507). • HDAC4 assay: 266 nM Human HDAC4 (GenBank Accession No. NM_006037): Amino acids 627-1085 with N-terminal GST tag, MW=75.2 kDa, expressed in baculovirus expression system (BioMol, Hamburg, Germany). • HDAC5 assay: 588 nM Human HDAC5 (GenBank Accession No. NM_001015053): Full length with Nterminal GST tag, MW=150 kDa, expressed by baculovirus expression system in Sf9 cells (BioMol, Hamburg, Germany). • HDAC6 assay: 13 nM Human HDAC6 (GenBank Accession No. BC069243): Full length with N-terminal GST tag, MW=159 kDa, expressed by baculovirus expression system in Sf9 cells (BioMol. Cat. # SE-508). • HDAC7 assay: 962 nM Human HDAC7 (GenBank Accession No. AY302468): Amino acids 518-end with N-terminal GST tag, MW=78 kDa, expressed in baculovirus expression system (BioMol, Hamburg, Germany). • HDAC8 assay: 119 nM Human HDAC8 (GenBank Accession No. NM018486): Full length, MW=42 kDa, expressed in an E. coli expression system (BioMol. […]
The reactions were carried out in a 96-well microplate for fluorometry in a 50 μl reaction volume. […] The reaction was allowed to develop for 45 minutes at 30° C. with 5% CO2; then the fluorescent signal was measured with an excitation wavelength at 360 nm and an emission wavelength at 460 nm in a microplate-reading fluorometer (GeminiXS; Molecular Devices, Sunnyvale, Calif.). […] IC50 was calculated by fitting the experimental data to a dose-response curve. […]

Consider `O=C(CCCCCNC(=O)c1[nH]c(-c2ccccc2)cc1-c1ccc(O)cc1)NO` [Example 1, N-(6-(hydroxyamino)-6-oxohexyl)-3-(4-hydroxyphenyl)-5-phenyl-1H-pyrrole-2-carboxamide], for which the IC50 in the experiment on DLD-1 turned out to be 1.62 µM; with SK-BR-3 it was 3.49 µM.

On to `O=C(CCCCCNC(=O)c1[nH]c(-c2ccc(O)cc2)cc1-c1ccoc1)NO` [Example 5, 3-(3-furyl)-N-(5-(hydroxycarbamoyl)pentyl)-5-(4-hydroxy-phenyl)-1H-pyrrole-2-carboxamide], for which the figures for the IC50 at Human HDAC11, in the experiment on DLD-1 and in the experiment with SK-BR-3 were 18 nM, 2.51 µM and 0.43 µM, respectively.

As to `O=C(CCCCCNC(=O)c1[nH]c(-c2ccc(O)cc2)cc1-c1ccccc1)NO` [Example 2, N-(6-(hydroxyamino)-6-oxohexyl)-5-(4-hydroxyphenyl)-3-phenyl-1H-pyrrole-2-carboxamide], the IC50 in the experiment with DLD-1 worked out at 4.19 µM; in the experiment on SK-BR-3, 3.37 µM.

Regarding `O=C(CCCCCNC(=O)c1[nH]c(-c2ccc(O)cc2)cc1-c1ccsc1)NO` [Example 6, N-(5-(hydroxycarbamoyl)pentyl)-5-(4-hydroxyphenyl)-3-(3-thienyl)-1H-pyrrole-2-carboxamide], the figures for the IC50 on Human HDAC11, in the experiment on DLD-1 and in the experiment with SK-BR-3 were 55 nM, 3.5 µM and 1.36 µM, respectively.

Consider `COc1ccc(-c2cc(-c3ccccc3)[nH]c2C(=O)NCCCCCC(=O)NO)cc1` [Compound A, N-[6-(hydroxyamino)-6-oxohexyl]-3-(4-methoxyphenyl)-5-phenyl-1H-pyrrole-2-carboxamide, reference compound], for which the “Selectivity against HDAC6 (IC50 HDACx/IC50 HDAC6) HDAC11” value at Human HDAC11 (IC50 HDAC11/IC50 HDAC6) is reported as 34. The IC50 at Human HDAC11 is 680 nM.
